Test results: US20250122529A1, “POLYCISTRONIC VECTORS FOR CELL-BASED THERAPIES” (Sana Biotechnology, Inc., priority 2021, published 2025)

Tests used:
[1] = tested on: CyD-CD47 clones 2-G09 and 2-G11; assay: CyD kill curve with 5-FC (cell count); format: cell-based
Description: Hollow triangles represent iPSCs; filled triangles represent differentiated cells.
The bicistronic vector was used to transduce induced pluripotent stem cells (iPSCs), which were then allowed to differentiate. Differentiation of CyD-CD47-expressing clones in 2D was not affected by safety switch expression (data not shown here).

CD47-HSVtk clones [2] = assay: HSVtk kill curve with GCV (flow cytometry with counting beads); format: cell-based; settings: various amounts of GCV; after three days
Description: Calculated IC50 and R square (R^2) values for each clone are also shown.

control clone = assay: GCV toxicity in control clone; format: cell-based; settings: tested dose range
CD47-HSVtk clones [3] = settings: range reported in literature; IC50s in CD47-HSVtk clones generally comparable; cited from earlier work
CD22 = CD22 (Homo sapiens, UniProt P20273); settings: affinity matured variant; read-out: CD22 binding affinity; cited from earlier work

For `Nc1nc(=O)[nH]cc1F` [Construct 5-FC, 5-fluorocytosine], which killing ([1]; CyD in the presence of 5-FC, differentiated cells, clones 2-G09 and 2-G11) is on record?
Its killing is “more than 99%”.

What about the IC50 ([1]; differentiated cells relative to iPSCs) of the same molecule?
The IC50 was “comparable IC50s relative to iPSCs”.

With `Nc1nc(O)c2ncn(COC(CO)CO)c2n1` [GCV, ganciclovir] as the molecule, how does the “HSVtk killing (viable cell count %)” value (CD47-HSVtk clones [2]) read?
Its value is “dose-response HSVtk killing was achieved”.

What about the GCV toxicity (control clone) of the same molecule?
Its GCV toxicity is “no GCV toxicity”.

And the IC50 (CD47-HSVtk clones [3])?
Its IC50 is 10 to 100 nM.

B1: m971-L7: affinity matured variant of m971 (protein)
scFv: QVQLQQSGPGMVKPSQTLSLTCAISGDSVSSNSVAWNWIRQSPSRGLEWLGRTYYRSTWYNDYAVSMKSRITINPDTNKNQFSLQLNSVTPEDTAVYYCAREVTGDLEDAFDIWGQGTMVTVSSGGGGSGGGGSGGGGSDIQMIQSPSSLSASVGDRVTITCRASQTIWSYLNWYRQRPGEAPNLLIYAASSLQSGVPSRFSGRGSGTDFTLTISSLQAEDFATYYCQQSYSIPQTFGQGTKLEIK
modifications: Synthetic: Anti-CD22 m971-L7 scFv entire sequence, with 3xG4S linker
For B1, which Kd (CD22) is on record?
The Kd was under 0.05 nM.
